test system: not listed separately; assay: Madin-Darby Canine Kidney Cells (MDCK) permeability assay; assay type: in vitro ADME; conditions: dog, apparent permeability, apical to basolateral
Experimental: Drug permeability through MDCK cell monolayers is known to be a useful tool as a model for cellular barrier for assessing intestinal epithelial drug transport, and thus to estimate intestinal permeability for orally administered compounds.
In this assay, monolayer cultures, suitable for investigation of compound permeability, were grown on Falcon/BD 96-well membrane inserts. The monolayers were maintained at 37° C. in a 5% CO2 atmosphere at 95% relative humidity until confluent. Apparent permeabilities of test compounds were determined in duplicate at a single concentration of 2 μM in the apical to basolateral direction. The transport investigations were initiated by the addition of the compound (2 μM of a solution containing 0.4% DMSO) to the apical compartment and the plates were maintained under culture conditions during the course of the experiment. The basolateral compartments following 2.5 hours of exposure and the final apical compartments were collected and analyzed for compound content by LC-MS/MS. The apparent permeability of each compound was then calculated.
Compounds of the present invention, such as those of Examples 18 and 27 were used in this assay. By comparison, comparison DPP-IV inhibitor compounds, which are generically disclosed in International Application WO02/076450, were also synthesized, and then used in this assay.

Papp A→B at 2.5 h, 2 μM [×10⁻⁶ cm/s] | Compound
4.8 | Nc1nccnc1C(=O)N[C@H]1CC[C@H]([C@H](N)C(=O)N2CCCC2)CC1 [Example 18, (S)-3-amino-pyrazine-2-carboxylic acid [trans-4-(1-Amino-2-oxo-2-pyrrolidin-1-yl-ethyl)-cyclohexyl]-amide]
1.1 | N[C@H](C(=O)N1CCCC1)[C@H]1CC[C@H](NC(=O)c2cnccn2)CC1 [reference compound]

Further lines, the molecule ahead of its results:

Compound | Papp A→B at 2.5 h, 2 μM [×10⁻⁶ cm/s]
N[C@H](C(=O)N1CCCC1)[C@H]1CC[C@H](NC(=O)c2nccnc2NCCc2ccccc2)CC1 [Example 27] | 6.2
Cc1cnc(C(=O)N[C@H]2CC[C@H]([C@H](N)C(=O)N3CCCC3)CC2)cn1 [reference compound] | 0.7

target: T1, DPP-IV (Homo sapiens, UniProt P27487); assay: In vitro assay for dipeptidyl peptidase inhibition; assay type: biochemical; conditions: IC50 (concentration of test compound required for 50% inhibition), hydrochloride salts; Gly-Pro-4-methoxy B naphthylamide substrate; overnight at 37° C.
T1 construct: purchased Enzyme Systems Products SPE-01
T1 sequence (P27487 whole entry, species assumed): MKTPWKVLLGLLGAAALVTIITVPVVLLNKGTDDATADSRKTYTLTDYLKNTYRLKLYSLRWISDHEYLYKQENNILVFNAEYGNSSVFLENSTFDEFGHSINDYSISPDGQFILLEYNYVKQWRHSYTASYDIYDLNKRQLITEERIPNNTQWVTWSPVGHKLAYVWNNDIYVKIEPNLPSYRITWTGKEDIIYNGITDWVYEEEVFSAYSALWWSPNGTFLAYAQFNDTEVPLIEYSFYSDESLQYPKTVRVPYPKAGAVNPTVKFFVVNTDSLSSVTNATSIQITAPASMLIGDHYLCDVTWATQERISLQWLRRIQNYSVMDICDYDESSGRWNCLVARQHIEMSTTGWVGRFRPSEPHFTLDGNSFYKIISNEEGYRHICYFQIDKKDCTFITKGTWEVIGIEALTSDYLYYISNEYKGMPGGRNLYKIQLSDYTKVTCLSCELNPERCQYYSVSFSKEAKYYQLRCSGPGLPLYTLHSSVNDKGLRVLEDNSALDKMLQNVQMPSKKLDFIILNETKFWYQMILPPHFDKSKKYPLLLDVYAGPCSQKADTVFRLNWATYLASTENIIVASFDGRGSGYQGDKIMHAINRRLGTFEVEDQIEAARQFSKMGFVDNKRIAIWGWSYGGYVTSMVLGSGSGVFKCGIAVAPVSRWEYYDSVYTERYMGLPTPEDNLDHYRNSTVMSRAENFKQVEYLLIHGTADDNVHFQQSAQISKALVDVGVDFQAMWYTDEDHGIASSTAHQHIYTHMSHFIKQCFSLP
Experimental: 150 μL of an enzyme-substrate solution was pipetted into microtiter wells of a polystyrene 96-well plate, and maintained at 4° C. The enzyme-substrate solution comprised 50 μM Gly-Pro-4-methoxy B naphthylamide HCl in 50 mM Tris assay buffer pH 7.3 containing 0.1M sodium chloride, 0.1% (v/v) Triton and 50 μU/mL DPP-IV (Enzyme Systems Products Cat#SPE-01, DPP-IV 5 mU/mL stock). 5 μL/well of compounds of Formula (I) were added, bringing the final compound of Formula (I) concentrations to 3 μM-10 nM per well.
Controls. Enzyme was omitted from four (4) wells, as a reagent blank. 5 μL of 3 mM Diprotin A was added to four wells as a positive quality control, providing a final Diprotin A concentration of 100 μM. To measure total enzyme activity (i.e. a negative control), without the influence of any compounds of Formula (I), 5 μL of distilled water was added to four wells.
The entire assay was incubated overnight (about 14-18 hours) at 37° C.

Compound | IC50 [nM]
CN(CC(=O)N[C@H]1CC[C@H]([C@H](N)C(=O)N2CCC(F)(F)C2)CC1)C(=O)Oc1ccccc1 [Example 33, ({trans-4-[(1S)-1-amino-2-(3,3-difluoro-pyrrolidin-1-yl)-2-oxo-ethyl]-cyclohexylcarbamoyl}-methyl)-methyl-carbamic acid phenyl ester] | ≤ 100

same assay, conditions: hydrochloride salts; Gly-Pro-4-methoxy B naphthylamide substrate; overnight at 37° C.; read-out: IC50 (concentration of test compound required for 50% inhibition)

IC50 [nM] | Compound
≤ 100 | Nc1nccnc1C(=O)N[C@H]1CC[C@H]([C@H](N)C(=O)N2CCCC2)CC1 [Example 18, (S)-3-amino-pyrazine-2-carboxylic acid [trans-4-(1-Amino-2-oxo-2-pyrrolidin-1-yl-ethyl)-cyclohexyl]-amide]
≤ 100 | N[C@H](C(=O)N1CCCC1)[C@H]1CC[C@H](N2C(=O)c3cccnc3C2=O)CC1 [Example 24, 6-[trans-4-((1S)-1-amino-2-oxo-2-pyrrolidin-1-yl-ethyl)-cyclohexyl]-pyrrolo[3,4-b]pyridine-5,7-dione]
≤ 100 | N[C@H](C(=O)N1CCCC1)[C@H]1CC[C@H](N2Cc3ccccc3S2(=O)=O)CC1 [Example 50, (2S)-2-amino-2-[trans-4-(1,1-dioxo-1,3-dihydro-1λ^6-benzo[d]isothiazol-2-yl)-cyclohexyl]-1-pyrrolidin-1-yl-ethanone]

More lines, now with the values behind:

Compound | IC50 [nM]
N[C@H](C(=O)N1CCCC1)[C@H]1CC[C@H](NC(=O)c2nccnc2NCCc2ccccc2)CC1 [Example 27] | ≤ 100
C#Cc1coc2cnc(C(=O)N[C@H]3CC[C@H]([C@H](N)C(=O)N4CCC[C@H]4C#N)CC3)cc12 [Example 62, N-(trans-4-{(S)-1-amino-2-[(2S)-2-cyanopyrrolidin-1-yl]-2-oxoethyl}cyclohexyl)-3-ethynylfuro[2,3-c]pyridine-5-carboxamide] | ≤ 100
CN(CC(=O)N[C@H]1CC[C@H]([C@H](N)C(=O)N2CCC[C@H]2C#N)CC1)C(=O)OCc1ccccc1 [Example 37, ({trans-4-[(1S)-1-amino-2-((2S)-2-cyano-pyrrolidin-1-yl)-2-oxo-ethyl]-cyclohexylcarbamoyl}-methyl)-methyl-carbamic acid benzyl ester] | ≤ 100
N#C[C@@H]1CCCN1C(=O)[C@@H](N)[C@H]1CC[C@H](NC(=O)c2cc3ccoc3cn2)CC1 [Example 58, N-(trans-4-{(1S)-1-amino-2-[(2S)-2-cyanopyrrolidin-1-yl]-2-oxoethyl}cyclohexyl) furo[2,3-c]pyridine-5-carboxamide] | ≤ 100

Source: patent US20050234065A1, “Dipeptidyl peptidase-IV inhibitors” (Pfizer Inc, priority 2004, published 2005)
